Reference: patent US20240208950A1, “COMPOSITIONS AND METHODS FOR TREATMENT OF CERVICAL AND OVARIAN CANCER” (SOUTH DAKOTA BOARD OF REGENTS, priority 2021, published 2024)

Key:
[1] = test system: ovarian cancer cell line A2780; assay: MTT cell viable assay (cytotoxicity and anti-proliferation); assay type: cell-based; conditions: Homo sapiens
Description: A biological assay was performed to study the potency of ORM-analogs by observing their pharmaceutical effects on living tissue (in vitro) and the effects of these analogs of unknown potency were compared to the effects of the standard (ormeloxifene). An MTT cell viable assay was first conducted to measure the cytotoxicity and anti-proliferation activity of synthesized analogs (Table 2 and FIG. 2).

SiHa cells = assay: Colony formation assay, SiHa; assay type: cell-based, human; conditions: SiHa, 2.5, 5 and 7.5 μM
Description: FIGS. 5A and 5B show representative colony images of CaSki cells (FIG. 5A) and SiHa cells (FIG. 5B) treated with various concentrations of ORM-Br ranging from […]. FIGS. 5C and 5D represent the quantification of colony formation in CaSki cells (FIG. 5C) and SiHa cells (FIG. 5D) treated with various concentrations of ORM-Br ranging from 0 to 7.5 μM.
To determine the effect of Br-ORM on clonogenic potential of CaSki and SiHa cells, a colony formation assay was performed. In brief, 500 cells were seeded per well in a 6-well plate and allowed to stand for the next three days. The cells were treated with Br-ORM with different concentrations (2.5, 5, and 7.5 μM) for seven days and then followed by normal growth media. […] Colonies were fixed in methanol, stained with haematoxylin, and counted using UVP 810 software.
FIG. 13. […] Cell viability was assessed by MTS assay. […] Bar graphs indicating quantification of colony formation in CaSki (i), and SiHa (ii) cells of cervical cancer with respect to vehicle control. […] Briefly, cervical cancer cells were treated with Br-ORM (10 μM) for 24 hours and the apoptosis inducing effect of Br-ORM was analyzed by Annexin V staining. […] The equal loading of protein in each lane was determined by probing the blots with β-actin antibody (FIG. 13F). […] Br-ORM arrests cell cycle in G1/S phase as determined by flow cytometry. […]

[2] = test system: cleaved PARP in SiHa cells; assay: Western blot for cleavage of PARP, SiHa; assay type: cell-based, human; conditions: 24 hours
Description: The effect of Br-ORM on protein expression in cervical cancer cells were determined by Western blot analysis by using specific antibodies.
It was observed that Br-ORM exerts potent growth inhibitory effects, so the effect of Br-ORM on apoptosis induction was further examined. Cervical cancer cells were treated with Br-ORM (10 μM) for 24 hours and the apoptosis inducing effect of Br-ORM was analyzed by Annexin V staining and Western blot analysis for cleavage in PARP protein.
FIG. 13. Br-ORM decreases proliferation and colony formation of cervical cancer cells. FIG. 13A. Effect of Br-ORM on cell viability of CaSki cells (i) and SiHa cells (ii). Briefly, cervical cancer cells were seeded (2500) in each well of 96-well plate and after overnight incubation; cells were treated with indicated concentrations of Br-ORM for 24 hours. Cell viability was assessed by MTS assay. […] Bar graphs indicating quantification of colony formation in CaSki (i), and SiHa (ii) cells of cervical cancer with respect to vehicle control. […] Briefly, cervical cancer cells were treated with Br-ORM (10 μM) for 24 hours and the apoptosis inducing effect of Br-ORM was analyzed by Annexin V staining. […] The equal loading of protein in each lane was determined by probing the blots with β-actin antibody (FIG. 13F). […] Br-ORM arrests cell cycle in G1/S phase as determined by flow cytometry. […]

SMILES: COc1ccc2c(c1)OC(C)(C)C(c1ccc(Br)cc1)C2c1ccc(OCCN2CCCC2)cc1 (stereo not shown) [ORM-Br]
- IC50 [1]: 11.2 µM
- colony formation (clonogenic potential) (SiHa cells): suppresses the clonogenic potential
- colony formation (clonogenic potential) (SiHa cells; listed as Br-ORM): significantly decreased the number of colonies
- protein levels of cleaved PARP [2]: dose dependently enhanced the protein levels of cleaved PARP
